Patent publication US8808702B2, “Sulfide, sulfoxide and sulfone chalcone analogues, derivatives thereof and therapeutic uses thereof” (Temple University-of the Commonwealth System of Higher …, priority 2006, dated 2014)
Read-outs that look alike come from different tables or passages of the source.

Legend:
[1] = test system: K562 (chronic myelogenous leukaemia); test: Effect of compounds on tumor cell lines (assay of Latham et al.), K562; type: cell-based; settings: Homo sapiens, K562 cells, examined 96 hours after treatment, 1 μM to 100 μM in DMSO
Outline: (§1)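 After 96 h of exposure to compound (1–100 μM in DMSO; one compound at 0.1–100 μM), effects were scored by inverted-microscope inspection, with trypan blue viable counts by hemacytometer when required. Cells were seeded at 2.5×10^4 per well and dosed 24 h after plating.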

DU145 (prostate cancer) = test: Effect of compounds on tumor cell lines (assay of Latham et al.), DU145; type: cell-based; settings: Homo sapiens, DU-145, DU145 cells, examined 96 hours after treatment, 1 μM to 100 μM in DMSO
Outline: as §1

[2] = Table 4, read-out: K 562 potency (IC50)
[3] = Table 4, read-out: DU 145 potency (IC50)
[4] = Table 4, read-out: K 562 potency (IC50), given as number

Row | SMILES | IC50 [1, 2] | IC50 (DU145 (prostate cancer); [3]) | melting point | IC50 [1, 4] | IC50 ([1]; Table 1, read-out: K 562 potency (IC50)) | IC50 (DU145 (prostate cancer); Table 1, read-out: DU 145 potency (IC50)) | IC50 (DU145 (prostate cancer); Table 4, read-out: DU 145 potency (IC50), given as number)
1 | O=C(/C(=C\c1ccc(-c2ccccc2)cc1)S(=O)(=O)Cc1ccc(Cl)cc1)c1ccc(Cl)cc1 [Example 398] | 25 to 50 µM | 25 to 50 µM | 65 to 72 °C |  |  |  | 
2 | COc1ccc(/C=C(\C(=O)c2ccc(Br)cc2)S(=O)(=O)Cc2ccc(Cl)cc2)cc1 [Example 395] | 10 to 25 µM | 25 to 50 µM | 152 to 155 °C |  |  |  | 
3 | Cc1ccc(CS(=O)(=O)/C(=C/c2c(O)cc(O)cc2O)C(=O)c2ccc(Cl)cc2)cc1 [Example 424] | > 100 µM | > 100 µM | 167 to 180 °C |  |  |  | 
4 | CSc1ccc(/C=C(\C(=O)c2ccc(Cl)cc2)S(=O)(=O)Cc2ccc(Cl)cc2)cc1 [Example 394] | 10 to 25 µM | 10 to 25 µM | 94 to 108 °C |  |  |  | 
5 | Cc1ccc(CS(=O)(=O)/C(=C/c2ccc(N(C)C)cc2)C(=O)c2ccc(Cl)cc2)cc1 [Example 432] | 50 to 100 µM | 50 to 100 µM | 150 to 154 °C |  |  |  | 
6 | O=C(/C(=C\c1ccc(I)cc1)S(=O)(=O)Cc1ccc(I)cc1)c1ccc(Br)cc1 [Example 420, (E)-1-(4-bromophenyl)-2-(4-iodobenzylsulfonyl)-3-(4-iodophenyl)-prop-2-en-1-one] |  | 25 to 50 µM | 160 to 162 °C | > 50 µM |  |  | 
7 | COc1ccccc1/C=C(\C(=O)c1ccc(Cl)cc1)S(=O)(=O)Cc1ccc(Cl)cc1 [Example 383] | 25 to 50 µM | 25 to 50 µM | 135 to 142 °C |  |  |  | 
8 | Cc1ccc(C)c(/C=C(\C(=O)c2ccc(Cl)cc2)S(=O)(=O)Cc2ccc(Cl)cc2)c1 [Example 380] | 10 to 25 µM | 10 to 25 µM | 129 to 136 °C |  |  |  | 
9 | COc1ccsc1/C=C(\C(=O)c1ccc(Br)cc1)S(=O)(=O)Cc1ccc(Cl)cc1 [Example 387] | 25 to 50 µM | 50 to 100 µM | 128 to 136 °C |  |  |  | 
10 | COc1cc(OC)c(/C=C(\C(=O)c2ccc(Br)cc2)S(=O)(=O)Cc2ccc(F)cc2)c(OC)c1 [Example 399] | 50 to 100 µM | 50 to 100 µM | 176 to 182 °C |  |  |  | 
11 | O=C(/C(=C\c1cc([N+](=O)[O-])ccc1F)S(=O)(=O)Cc1ccc(F)cc1)c1ccc(Br)cc1 [Example 403] | 50 to 100 µM | > 100 µM | 172 to 177 °C |  |  |  | 
12 | O=C(/C(=C\c1ccccc1OCc1ccccc1)S(=O)(=O)Cc1ccc(Cl)cc1)c1ccc(Br)cc1 [Example 381] | 1 to 10 µM | 10 to 25 µM | 136 to 142 °C |  |  |  | 
13 | Cc1ccc(CS(=O)(=O)/C(=C/c2ccccc2OCc2ccccc2)C(=O)c2ccc(Cl)cc2)cc1 [Example 426] | 1 to 10 µM | 1 to 10 µM | 112 to 129 °C |  |  |  | 
14 | COc1ccccc1/C=C(\C(=O)c1ccc(Cl)cc1)S(=O)(=O)Cc1ccc(Cl)c(Cl)c1 [Example 364] | 1 to 10 µM | 1 to 10 µM | 154 to 157 °C |  |  |  | 
15 | Cc1ccc(CS(=O)(=O)/C(=C/c2ccc(C)s2)C(=O)c2ccc(Cl)cc2)cc1 [Example 440] | 25 to 50 µM | 25 to 50 µM | 171 to 178 °C |  |  |  | 
16 | COc1ccc(C(=O)/C(=C\c2ccc(Br)cc2)S(=O)(=O)Cc2ccc(Br)cc2)cc1 [Example 371] | 1 to 10 µM | 1 to 10 µM | 146 to 148 °C |  |  |  | 
17 | O=C(/C(=C\c1ccc(Br)cc1)S(=O)(=O)Cc1ccccc1Cl)c1ccc(Cl)cc1 [Example 360] | 25 to 50 µM | 25 to 50 µM | 186 to 192 °C |  |  |  | 
18 | Cc1ccc(/C=C(\C(=O)c2ccc(Cl)cc2)S(=O)(=O)Cc2ccc(Cl)cc2)s1 [Example 396] | 1 to 10 µM | 1 to 10 µM | 148 to 152 °C |  |  |  | 
19 | Cc1ccc(CS(=O)(=O)/C(=C/c2ccc(S(C)(=O)=O)cc2)C(=O)c2ccc(Br)cc2)cc1 [Example 438] | 1 to 10 µM | 10 to 25 µM | 110 to 112 °C |  |  |  | 
20 | CCOc1ccc(/C=C(\C(=O)c2ccc(Cl)cc2)S(=O)(=O)Cc2ccc(C)cc2)cc1OC [Example 435] | 10 to 25 µM | 10 to 25 µM | 65 to 72 °C |  |  |  | 

Other lines, results leading:

Row | IC50 [1, 2] | IC50 (DU145 (prostate cancer); [3]) | melting point | IC50 [1, 4] | IC50 ([1]; Table 1, read-out: K 562 potency (IC50)) | IC50 (DU145 (prostate cancer); Table 1, read-out: DU 145 potency (IC50)) | IC50 (DU145 (prostate cancer); Table 4, read-out: DU 145 potency (IC50), given as number) | SMILES
21 | 1 to 10 µM | 1 to 10 µM | 137 to 148 °C |  |  |  |  | O=C(/C(=C\c1ccccc1OCc1ccccc1)S(=O)(=O)Cc1ccccc1Cl)c1ccc(Cl)cc1 [Example 358]
22 | 1 to 10 µM | 1 to 10 µM | 176 to 182 °C |  |  |  |  | Cc1ccc(CS(=O)(=O)/C(=C/c2cc(C)ccc2C)C(=O)c2ccc(Cl)cc2)cc1 [Example 425]
23 | 10 to 25 µM | 25 to 50 µM | 180 to 182 °C |  |  |  |  | Cc1ccc(/C=C(\C(=O)c2ccc([N+](=O)[O-])cc2)S(=O)(=O)Cc2ccc(Cl)cc2)s1 [Example 397]
24 | 25 to 50 µM | > 100 µM | 185 to 192 °C |  |  |  |  | COc1cc(OC)c(/C=C(\C(=O)c2ccc(Cl)cc2)S(=O)(=O)Cc2ccccc2Cl)c(OC)c1 [Example 357]
25 | 50 to 100 µM | 50 to 100 µM | > 200 °C |  |  |  |  | O=C(/C(=C\c1c[nH]c2ccccc12)S(=O)(=O)Cc1ccc(F)cc1)c1ccc(Cl)cc1 [Example 406]
26 | 10 to 25 µM | 10 to 25 µM | 169 to 178 °C |  |  |  |  | Cc1ccc(CS(=O)(=O)/C(=C/c2cc(C)cc(C)c2)C(=O)c2ccc(Cl)cc2)cc1 [Example 429]
27 | 10 to 25 µM | 10 to 25 µM | 62 to 64 °C |  |  |  |  | COc1cc(OC)c(/C=C(\C(=O)c2ccc([N+](=O)[O-])cc2)S(=O)(=O)Cc2ccc(Cl)cc2)c(OC)c1 [Example 379]
28 | 25 to 50 µM | 25 to 50 µM | 98 to 105 °C |  |  |  |  | Cc1ccc(CS(=O)(=O)/C(=C/c2sccc2C)C(=O)c2ccc(Cl)cc2)cc1 [Example 431]
29 | 10 to 25 µM | 10 to 25 µM | 136 to 141 °C |  |  |  |  | COc1ccccc1/C=C(\C(=O)c1ccc([N+](=O)[O-])cc1)S(=O)(=O)Cc1ccc(Cl)cc1 [Example 384]
30 | 10 to 25 µM | 10 to 25 µM | 195 to 198 °C |  |  |  |  | O=C(/C(=C\c1ccc(O)cc1)S(=O)(=O)Cc1ccc(Cl)c(Cl)c1)c1ccc(Cl)cc1 [Example 366]
31 | 10 to 25 µM | 10 to 25 µM | 186 to 195 °C |  |  |  |  | Cc1ccc(CS(=O)(=O)/C(=C/c2c[nH]c3ccc(Br)cc23)C(=O)c2ccc(Cl)cc2)cc1 [Example 439]
32 | 25 to 50 µM | 50 to 100 µM | 145 to 149 °C |  |  |  |  | CCOc1ccc(/C=C(\C(=O)c2ccc(Cl)cc2)S(=O)(=O)Cc2ccc(F)cc2)cc1OC [Example 412]
33 |  |  | 128 to 130 °C |  | 1 to 10 µM | 1 to 10 µM |  | O=C(/C(=C\c1ccc(I)cc1)Sc1ccc(Br)cc1)c1ccc(Br)cc1 [Example 45, (E)-1-(4-bromophenyl)-2-(4-bromophenylthio)-3-(4-Iodophenyl)-prop-2-en-1-one]
34 | 10 to 25 µM | 10 to 25 µM | 123 to 128 °C |  |  |  |  | CCOc1ccc(/C=C(\C(=O)c2ccc(Cl)cc2)S(=O)(=O)Cc2ccccc2Cl)cc1OC [Example 361]
35 | 1 to 10 µM | 10 to 25 µM | 146 to 158 °C |  |  |  |  | Cc1ccsc1/C=C(\C(=O)c1ccc(Cl)cc1)S(=O)(=O)Cc1ccc(F)cc1 [Example 407]
36 | 10 to 25 µM | 10 to 25 µM | 134 to 139 °C |  |  |  |  | CCOc1cc(/C=C(\C(=O)c2ccc(Cl)cc2)S(=O)(=O)Cc2ccc(Cl)cc2)ccc1O [Example 386]
37 | 1 to 10 µM | 10 to 25 µM | 148 to 151 °C |  |  |  |  | COc1ccc(/C=C(\C(=O)c2ccc(Cl)cc2)S(=O)(=O)Cc2ccc(Cl)cc2)c(OC)c1OC [Example 375]
38 | 10 to 25 µM | 25 to 50 µM | 160 to 165 °C |  |  |  |  | Cc1ccc(CS(=O)(=O)/C(=C/c2ccc(Br)cc2)C(=O)c2ccc(Cl)cc2)cc1 [Example 433]
39 | 1 to 10 µM | 1 to 10 µM | 181 to 188 °C |  |  |  |  | O=C(/C(=C\c1cc(Cl)cc(Cl)c1Cl)S(=O)(=O)Cc1ccc(Cl)cc1)c1ccc(Br)cc1 [Example 376]
40 | 50 to 100 µM | 50 to 100 µM | 155 to 162 °C |  |  |  |  | CN(C)c1ccc(/C=C(\C(=O)c2ccc(Br)cc2)S(=O)(=O)Cc2ccc(F)cc2)cc1 [Example 408]
41 |  |  | 168 to 170 °C | > 50 µM |  |  | > 50 µM | O=C(/C(=C\c1ccc(Br)cc1)S(=O)(=O)Cc1ccc(I)cc1)c1ccc(Br)cc1 [Example 418]
42 | 10 to 25 µM | 10 to 25 µM | 100 to 103 °C |  |  |  |  | O=C(/C(=C\c1ccc(Br)cc1)S(=O)(=O)Cc1ccc(Cl)cc1)c1ccc(Cl)cc1 [Example 392]
43 | 1 to 10 µM | 1 to 10 µM | 167 to 173 °C |  |  |  |  | Cc1ccc(C)c(/C=C(\C(=O)c2ccc(Br)cc2)S(=O)(=O)Cc2ccc(F)cc2)c1 [Example 401]
44 | 25 to 50 µM | 25 to 50 µM | 130 to 139 °C |  |  |  |  | Cc1ccsc1/C=C(\C(=O)c1ccc(Cl)cc1)S(=O)(=O)Cc1ccc(Cl)cc1 [Example 388]
45 | 1 to 10 µM | 25 to 50 µM | 134 to 138 °C |  |  |  |  | COc1cc(OC)c(/C=C(\C(=O)c2ccc(Cl)cc2)S(=O)(=O)Cc2ccc(F)cc2)c(OC)c1 [Example 400]
